Measurements as given in patent US20070134657A1, “Methods and compositions relating to gradient exposed cells” (GENERAL HOSPITAL CORPORATION, THE, priority 2002, published 2007).

What was measured:
human neutrophils [1] = assay: Effect of signaling pathway inhibitors on directional neutrophil migration in IL-8 gradients (microfluidic device); format: cell-based
Text: Microfluidic Migration Assay and Timelapse Microscopy: Neutrophils (1×10^3 cells) were placed uniformly across the migration channel and allowed to migrate under a linear gradient of human Interleukin-8 (72 a.a.; PeproTech, Rocky Hill, N.J.) in IMDM with 0.5% (w/v) FCS flowing at 0.1 mm/sec. […] Brightfield images were taken every 30 seconds using a C4742-95 Hamamatsu digital camera (Hamamatsu, Japan) controlled by IPLab 3.6.1 (Scanalytics, Fairfax, Va.). Cell movement was always observed at a set point along the migration channel. Gradients were also calibrated at this set point. Migration was quantified for all cells across the gradient.
Signaling Pathway Inhibitors: Cells were treated with pertussis toxin (100 ng/mL; 30 minutes at 37° C.), wortmannin (1 μM, 10 μM; 20 minutes at 37° C., 8-Br-cAMP (1 mM; 15 minutes at room temperature), 8-Br-cGMP (1 mM; 15 minutes at room temperature) (Sigma-Aldrich), or the CXCR2 non-peptide antagonist, SB225002 (1 pM, 100 pM, 1 nM, or 1 μM for 15 minutes at 37° C.; Calbiochem, Calif.). Immediately after treatment cells were seeded in migration channel of the microfluidic device and allowed to migrate as described above.
Since receptor occupancy is known to play a role in directional decision making and gradient sensing in the context of chemotaxing eukaryotic cells, it was postulated that chemokine receptor occupancy by a chemokine might also play a critical role in the decision of a cell to move up or down a chemokine gradient. Thus, a SB25002, the specific non-peptide antagonist of the IL-8 receptor, CXCR2 was utilized to examine this postulate. Neutrophils were pretreated with SB225002 at concentrations between 1 pM and 1 μM and then exposed to 0 to 1.2 μM gradients of IL-8 in microfabricated devices as described above. Videos of cell migration were analysed using MetaMorph and MathLab software to generate normalized angular frequencies determined for cells migrating in each of the three sectors of the gradient. The absence of inhibitor generates a normalized angular frequency of 1.0 whereas inhibition of fugetactic or chemotactic angular frequencies results in a normalized frequency of <1.0 and augmentation of either directional response results in a value greater than 1. This analysis allows to precisely quantitate the effect of a given concentration of inhibitor on the directional decision of the cell to move up or down a gradient. […] Furthermore, although IL-8 binds to both CXCR2 and CXCR1 on the cell surface, of the human neutrophil bi-directional signaling was evidently critically dependent on CXCR2.
It had been previously shown that the signaling pathway for chemotaxis is distinct from that for chemorepulsion or fugetaxis. […] The study of neutrophil migration in microfabricated devices allows to examine precisely the effects of these inhibitors on quantitative parameters of cell migration including the directional bias of cells in the context of precisely defined and stable chemokine gradients. Primary human neutrophils were pretreated with known inhibitors of the chemokine signal transduction pathway including pertussis toxin, wortmannin, genistein, 8-Br-cAMP and 8-Br-cGMP and then exposed to IL-8 gradients in which chemotaxis and fugetaxis were seen. The effect of the inhibitor on directional migration towards or away from the chemokine was quantitated by determining the directional motility index of cells migrating in the context of these gradients. Movement vector angles corresponding to movement up the gradient (30 to 150 degrees—see FIG. 13) were defined as chemotactic and measured movement vector angles corresponding to movement down the gradient (210 to 330 degrees—see figure) were defined as fugetactic. The directional choice of cells to move up or down a chemokine gradient were therefore compared in the presence and the absence of an inhibitor. […]

human neutrophils [2] = assay: Microfluidic migration assay of neutrophils in linear gradients of IL-8; format: cell-based
Method: Neutrophil isolation: Human whole blood was obtained from healthy volunteers by venipuncture into tubes containing sodium heparin (Becton Dickinson, San Jose, Calif.). Whole blood was centrifuged for 4 minutes at 2400 rpm and plasma was removed. Resulting pellet was resuspended in Iscove's Modified Dulbecco's Medium (IMDM; Cellgro MediaTech, Herndon, Va.) with 0.5% (w/v) fetal calf serum FCS; Cellgro MediaTech). 25 mL of suspension was layered over 10 mL Lymphocyte Separation Medium (ICN, Irvine, Calif.) and centrifuged for 40 minutes at 1600 rpm at 22° C. Supernatant was aspirated, resulting pellet was resuspended in IMDM with 0.5% (w/v) FCS and 2% (w/v) dextran (Sigma-Aldrich, St. Louis, Mo.), and red blood cells (RBC) were allowed to sediment for 30 minutes at room temperature. Supernatant was transferred into clean tube and centrifuged for 5 minutes at 2000 rpm. Supernatant was aspirated, pellet was mixed with cold ddH2O for hypotonic lysis of remaining RBCs, and transferred to IMDM with 0.5% (w/v) FCS. Isolated neutrophils were washed and resuspended in IMDM with 0.5% (w/v) FCS, determined to be 95% pure, and 99% viable by Trypan Blue exclusion.
Fabrication and Preparation of Microfluidic Linear Gradient Generator: The microfluidic linear gradient generator was fabricated in poly(dimethylsiloxane) (PDMS; Sylgard 184, Dow Corning, N.Y.) using rapid prototyping and soft lithography as described previously. Briefly, a high resolution printer was used to generate a transparency mask from a computer-aided design image file. The mask was used in contact photolithography with SU-8 photoresist (Microlithography Chemical Co., Newton Mass.) to generate a positive relief of patterned photoresist on a silicon wafer. Replicas with embossed channels were fabricated by curing PDMS prepolymer against the patterned wafer. Inlet and outlet ports for media and cell suspension were bored out of the cured PDMS replica using a sharpened syringe needle. The PDMS replica and glass substrate were placed in an oxygen plasma generator (150 mTorr, 100 W) for 1 minute. Immediately following plasma treatment, the PDMS replica and glass were placed against each other and irreversibly bonded. Polyethylene tubing (Becton Dickenson) was inserted into inlet and outlet ports to make the fluidic connections. Tubing was connected to a PHD 2000 syringe pump (Harvard Apparatus, Holliston, Mass.) to complete the setup. Hemostats were used to control flow during cell loading.
Microfluidic Migration Assay and Timelapse Microscopy: Neutrophils (1×10^3 […]; PeproTech, Rocky Hill, N.J.) in IMDM with 0.5% (w/v) FCS flowing at 0.1 mm/sec. […] Brightfield images were taken every 30 seconds using a C4742-95 Hamamatsu digital camera (Hamamatsu, Japan) controlled by IPLab 3.6.1 (Scanalytics, Fairfax, Va.). Cell movement was always observed at a set point along the migration channel. Gradients were also calibrated at this set point. Migration was quantified for all cells across the gradient.
Construction of Digital Videos for Quantitative Analysis: Digital videos were mad from time-lapse video microscopy file stacks or S-VHS videotapes using a combination of IPLab 3.6.1, Photoshop 6.0 (Adobe Systems, San Jose, Calif.), and Apple QuickTime Pro 5.0 (Apple Computer, Cupertino, Calif.). Migration tracking was carried out using MetaMorph 4.5 (Universal Imaging, Downington, Pa.) object tracking application, which generated tables of Cartesian coordinate data for each tracked cell.
Mathematical Analysis of Cell Migration in Linear Gradient Generator: The angular correlation function, or cosine correlation function, was calculated for each experiment. For experiments with no gradient, the correlation function decayed exponentially with increasing time interval, while the function decayed much slower, potentially by a power law, for experiments with a gradient; in all cases correlation of angles over time was increased as absolute [IL-8] increased. […]

[3] = pretreated cells, IL-8 gradients in which chemotaxis and fugetaxis were seen

What does the source list for `O=C(Nc1ccc([N+](=O)[O-])cc1O)Nc1ccccc1Br` [SB225002]?
effect on neutrophil chemotaxis (normalized angular frequency) (human neutrophils [1]; 1 pM and 100 pM inhibitor, 0 to 1.2 μM gradient of IL-8): augmented; effect on neutrophil fugetaxis (normalized angular frequency) (human neutrophils [1]; 1 pM inhibitor, 0 to 1.2 μM gradient of IL-8, p=0.0037): significant inhibition; effect on neutrophil fugetaxis (normalized angular frequency) (human neutrophils [1]; 100 pM inhibitor, 0 to 1.2 μM gradient of IL-8, p=0.0210): significant inhibition; effect on neutrophil directional migration (human neutrophils [1]; gradually increasing concentrations (up to 1 μM), 0 to 1.2 μM gradient of IL-8): inhibited both fugetaxis and chemotaxis

For “IL-8: human Interleukin-8 (72 a.a.; PeproTech), chemokine”, which “Persistence time of cell movement” value (human neutrophils [2]; IL-8 gradient in which chemotaxis is seen predominantly) is on record?
Its value is 21.5 min.

What about the “Persistence time of cell movement” value (human neutrophils [2]; IL-8 gradient in which fugetaxis is seen predominantly) of the same compound?
Its value is 10.9 min.

What about the neutrophil migratory behaviour (human neutrophils [2]; chemokine at a uniform concentration across the migration channel) of the same compound?
Its neutrophil migratory behaviour is “underwent chemokinesis”.

What about the “mean chemotropism index (MCI)” value (human neutrophils [2]; gradient between 0 and 12 nM) of the same compound?
Its value is “+0.32”.

What about the “mean chemotropism index (MCI)” value (human neutrophils [2]; gradient between 0 and 120 nM) of the same compound?
The value was “+0.39”.

What about the “mean chemotropism index (MCI)” value (human neutrophils [2]; gradient of 0 to 1.2 μM) of the same compound?
Its value is −0.13.

What about the neutrophil migratory behaviour (human neutrophils [2]; gradient of 0 to 1.2, cells commencing in the central third of the gradient) of the same compound?
Its neutrophil migratory behaviour is “underwent chemokinesis”.

What about the neutrophil migratory behaviour (human neutrophils [2]; gradient of 0 to 1.2, cells in the lower third of the gradient) of the same compound?
The neutrophil migratory behaviour was “chemotaxed towards higher levels of the chemokine”.

What about the neutrophil migratory behaviour (human neutrophils [2]; gradient of 0 to 1.2, cells originating in the upper third of the gradient) of the same compound?
Its neutrophil migratory behaviour is “underwent fugetaxis down the gradient”.

What about the neutrophil migratory behaviour (human neutrophils [2]; gradients between 0 and 12 nM and 0 and 120 nM) of the same compound?
Its neutrophil migratory behaviour is “predominantly demonstrated chemotaxis”.

And the “mean sectional MCI” value (human neutrophils [2]; lower segment of the 0 to 10.2 μM gradient)?
Its value is “+0.2”.

And the “mean sectional MCI” value (human neutrophils [2]; middle third of the 0 to 10.2 μM gradient)?
Its value is −0.14.

And the neutrophil migratory behaviour (human neutrophils [2]; steepest gradient, 0 to 2.4 μM)?
Its neutrophil migratory behaviour is “underwent chemokinesis regardless of their position within the gradient”.

What about the “Persistence time of cell movement” value (human neutrophils [2]; uniform concentration of IL-8 (chemokinesis)) of the same compound?
Its value is 4.5 min.

What about the “mean chemotropism index (MCI)” value (human neutrophils [2]; uniform concentration of chemokine at 120 nM) of the same compound?
Its value is −0.02 +/−0.01.

And the “mean sectional MCI” value (human neutrophils [2]; upper third of the 0 to 10.2 μM gradient)?
Its value is −0.22.

Which “effect on neutrophil chemotaxis (angular frequency, movement up the gradient)” value (human neutrophils [1]; [3]) does the source give for pertussis toxin here?
Its value is “significantly inhibited”.

And the “effect on neutrophil fugetaxis (angular frequency, movement down the gradient)” value (human neutrophils [1]; [3])?
The value was “significantly inhibited”.
